Source: patent US20260022142A1, “MACROCYCLIC IMMUNOMODULATORS” (Bristol-Myers Squibb Company, priority 2022, published 2026)
Numbered stars: 1 amine (or outer) side, 2 acyl side, 3 side chain; on linkers, the order of the positions; unused ones are H or OH. Bridge positions count the residues as written; N and C are the ends. Square brackets hold non-standard residues; d marks the D form. Peptide text beside a SMILES is read from it. * marks the point of attachment. ξ: configuration not given here. Phe(3-CF3) = N[C@@H](Cc1cccc(C(F)(F)F)c1)C(=O)O; Phe(4-COOH) = N[C@@H](Cc1ccc(C(=O)O)cc1)C(=O)O; d(γGlu) = O=C(O)[C@@H](CCC(=O)[*:2])N[*:1]; Bip = N[C@@H](Cc1ccc(-c2ccccc2)cc1)C(=O)O; Phe(3-Me) = Cc1cccc(C[C@H](N)C(=O)O)c1; γGlu = O=C(O)[C@H](CCC(=O)[*:2])N[*:1]; Abu(3S-NH2) = C[C@H](N)[C@H](N)C(=O)O; NH(CH2)12COOH = O=C(O)CCCCCCCCCCCCN*; Val(3-OH) = CC(C)(O)[C@H](N)C(=O)O; X15 = C[C@H](N)C(N[*:1])C(=O)[*:2]; hArg = N=C(N)NCCCC[C@H](N)C(=O)O; 4Pal = N[C@@H](Cc1ccncc1)C(=O)O; Cha = N[C@@H](CC1CCCCC1)C(=O)O; Cit = NC(=O)NCCC[C@H](N)C(=O)O; Thr(3ξ) = CC(O)[C@H](N)C(=O)O; 12Ado = NCCCCCCCCCCCC(=O)O; Carboxymethyl = O=C(O)C*; Orn = NCCC[C@H](N)C(=O)O; Aun = NCCCCCCCCCCC(=O)O; Dab = NCC[C@H](N)C(=O)O; Nva = CCC[C@H](N)C(=O)O; Dap = NC[C@H](N)C(=O)O; AEEA = NCCOCCOCC(=O)O

Target: T1, PD-1/PD-L1 interaction (PE-labeled human PD-L1-Ig binding to Jurkat cell line over-expressing human PD-1) (Homo sapiens, UniProt Q15116)
T1 construct: expressed in transfected cells; host or cells: Jurkat
Assay: Jurkat-PD-1 Cell Binding High-Content Screening Assay (CBA)
Assay type: cell-based
Conditions: Jurkat cell line over-expressing human PD-1; PE-labeled PD-L1-Ig 20 nM final; read-out: Jurkat hPD1-PDL1 IC50
Procedure, shortened: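 First, compound is added to PD-1-expressing Jurkat cells in serum-containing DMEM and left 2 h at 37° C. Next, PE-conjugated PD-L1-Ig is introduced at 20 nM final concentration for 1 hour. Finally, cells are fixed in 4% paraformaldehyde with Hoechst 33342, washed and imaged.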

T1 sequence (Q15116 25-288): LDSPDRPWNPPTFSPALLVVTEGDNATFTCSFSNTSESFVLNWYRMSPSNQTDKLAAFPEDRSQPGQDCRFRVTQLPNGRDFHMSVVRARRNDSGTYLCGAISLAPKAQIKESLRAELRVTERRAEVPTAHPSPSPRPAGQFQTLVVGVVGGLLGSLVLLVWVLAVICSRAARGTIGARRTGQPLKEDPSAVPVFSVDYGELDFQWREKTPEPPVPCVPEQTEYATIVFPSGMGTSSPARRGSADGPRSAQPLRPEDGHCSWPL

| IC50 [nM] | Compound |
| --- | --- |
| 38.1 | CC(C)C[C@H]1NC(=O)[C@H](CCCN)NC(=O)[C@H](Cc2ccc(OCC(=O)O)cc2)NC(=O)[C@H](Cc2ccc(-c3ccccc3)cc2)NC(=O)[C@H](Cc2ccc(C(=O)O)cc2)NC(=O)[C@H](Cc2cccc(C(F)(F)F)c2)NC(=O)[C@H](CC(=O)O)NC(=O)[C@H](Cc2ccc(OCC(=O)O)cc2)NC(=O)[C@H](Cc2ccc(OCC(=O)O)cc2)NC(=O)CSC[C@@H](C(=O)N[C@@H](CCN)C(=O)NCCOCCOCC(=O)N[C@H](CCC(=O)NCCOCCOCC(=O)NCCCCCCCCCCCCC(=O)O)C(=O)O)NC(=O)[C@H](CO)NC(=O)[C@H](C(C)(C)O)NC(=O)[C@H](CC2CCCCC2)NC(=O)[C@H](CCN)NC1=O [Compound 3904] ({CH2CO}-Y(Carboxymethyl)Y(Carboxymethyl)D[Phe(3-CF3)][Phe(4-COOH)][Bip]Y(Carboxymethyl)[Orn][dL][Dab][Cha][Val(3-OH)]SC[Dab][AEEA][d(γGlu)][AEEA]-{NH(CH2)12COOH}; thioether N-14) |
| 11.1 | Cc1cccc(C[C@@H]2NC(=O)[C@H](CC(=O)O)NC(=O)[C@H](Cc3ccc(OCC(=O)O)cc3)NC(=O)C([C@H](C)N)NC(=O)CSC[C@@H](C(=O)N[C@@H](CCN)C(=O)NCCCCCCCCCCCCC(=O)O)NC(=O)[C@H](CO)NC(=O)[C@H](C(C)(C)O)NC(=O)[C@H](CC3CCCCC3)NC(=O)[C@H](CCN)NC(=O)[C@@H](CC(C)C)NC(=O)[C@H](CCCN)NC(=O)[C@H](Cc3ccc(OCC(=O)O)cc3)NC(=O)[C@H](Cc3ccc(-c4ccccc4)cc3)NC(=O)[C@H](Cc3ccc(OCC(=O)O)cc3)NC2=O)c1 (stereo partly drawn) [Compound 2257] ({CH2CO}-[X15]Y(Carboxymethyl)D[Phe(3-Me)]Y(Carboxymethyl)[Bip]Y(Carboxymethyl)[Orn][dL][Dab][Cha][Val(3-OH)]SC[Dab]-{NH(CH2)12COOH}; thioether N-14) |
| 20.4 | CC(C)C[C@H]1NC(=O)[C@H](CCCN)NC(=O)[C@H](C(C)C)NC(=O)[C@H](Cc2ccc(-c3ccccc3)cc2)NC(=O)[C@H](C(C)C)NC(=O)[C@H](Cc2c[nH]c3ccccc23)NC(=O)[C@H](CC(=O)O)NC(=O)[C@H](Cc2ccc(OCC(=O)O)cc2)NC(=O)[C@H](CCCCNC(=N)N)NC(=O)CSC[C@@H](C(=O)NCC(=O)NCCOCCOCC(=O)N[C@@H](CCCN)C(=O)NCCOCCOCC(=O)NCCCCCCCCCCCC(=O)O)NC(=O)[C@H](CO)NC(=O)[C@H](C(C)C)NC(=O)[C@H](CC2CCCCC2)NC(=O)[C@H](CCN)NC1=O [Compound 3190] ({CH2CO}-[hArg]Y(Carboxymethyl)DWV[Bip]V[Orn][dL][Dab][Cha]VSCG[AEEA][Orn][AEEA][12Ado]-OH; thioether N-14) |
| 17.7 | Cc1cccc(C[C@@H]2NC(=O)[C@H](CC(=O)O)NC(=O)[C@H](Cc3ccc(OCC(=O)O)cc3)NC(=O)[C@H](C(C)O)NC(=O)CSC[C@@H](C(=O)N[C@@H](CCN)C(=O)NCCOCCOCC(=O)N[C@@H](CCC(=O)NCCOCCOCC(=O)NCCCCCCCCCCCCC(=O)O)C(=O)O)NC(=O)[C@H](CO)NC(=O)[C@H](C(C)(C)O)NC(=O)[C@H](CC3CCCCC3)NC(=O)[C@H](CCN)NC(=O)[C@@H](CC(C)C)NC(=O)[C@H](CCCN)NC(=O)[C@H](Cc3ccc(OCC(=O)O)cc3)NC(=O)[C@H](Cc3ccc(-c4ccccc4)cc3)NC(=O)[C@H](Cc3ccc(OCC(=O)O)cc3)NC2=O)c1 (stereo partly drawn) [Compound 3906] ({CH2CO}-[Thr(3ξ)]Y(Carboxymethyl)D[Phe(3-Me)]Y(Carboxymethyl)[Bip]Y(Carboxymethyl)[Orn][dL][Dab][Cha][Val(3-OH)]SC[Dab][AEEA][γGlu][AEEA]-{NH(CH2)12COOH}; thioether N-14) |
| 12.3 | Cc1cccc(C[C@@H]2NC(=O)[C@H](CC(=O)O)NC(=O)[C@H](Cc3ccc(OCC(=O)O)cc3)NC(=O)[C@H](CC(N)=O)NC(=O)CSC[C@@H](C(=O)NCCCCCCCCCCC(=O)O)NC(=O)[C@H](CCC(=O)O)NC(=O)[C@H](C(C)C)NC(=O)[C@H](CC3CCCCC3)NC(=O)[C@H](CCN)NC(=O)[C@@H](CC(C)C)NC(=O)[C@H](CCCN)NC(=O)[C@H](Cc3ccc(O)cc3)NC(=O)[C@H](Cc3ccc(-c4ccccc4)cc3)NC(=O)[C@H](C(C)C)NC2=O)c1 [Compound 3375] ({CH2CO}-NY(Carboxymethyl)D[Phe(3-Me)]V[Bip]Y[Orn][dL][Dab][Cha]VEC[Aun]-OH; thioether N-14) |
| 53.9 | CC(C)C[C@H]1NC(=O)[C@H](CCCN)NC(=O)[C@H](Cc2c[nH]cn2)NC(=O)[C@H](Cc2ccc(-c3ccccc3)cc2)NC(=O)[C@H](C(C)C)NC(=O)[C@H](Cc2c[nH]c3ccccc23)NC(=O)[C@H](CC(=O)O)NC(=O)[C@H](Cc2ccc(OCC(=O)O)cc2)NC(=O)[C@H](Cc2ccccc2)NC(=O)CSC[C@@H](C(=O)N[C@@H](CCCN)C(=O)NCCOCCOCC(=O)NCCCCCCCCCCC(=O)O)NC(=O)[C@H](CO)NC(=O)[C@H](C(C)C)NC(=O)[C@H](CC2CCCCC2)NC(=O)[C@H](CCN)NC1=O [Compound 3057] ({CH2CO}-FY(Carboxymethyl)DWV[Bip]H[Orn][dL][Dab][Cha]VSC[Orn][AEEA][Aun]-OH; thioether N-14) |
| 11.1 | CCC[C@@H]1NC(=O)CSC[C@@H](C(=O)N[C@@H](CCN)C(=O)NCCOCCOCC(=O)NCCCCCCCCCCCCC(=O)O)NC(=O)[C@H](CO)NC(=O)[C@H](C(C)(C)O)NC(=O)[C@H](CC2CCCCC2)NC(=O)[C@H](CCN)NC(=O)[C@@H](CC(C)C)NC(=O)[C@H](CCCN)NC(=O)[C@H](Cc2ccc(OCC(=O)O)cc2)NC(=O)[C@H](Cc2ccc(-c3ccccc3)cc2)NC(=O)[C@H](Cc2ccc(OCC(=O)O)cc2)NC(=O)[C@H](Cc2cccc(C)c2)NC(=O)[C@H](CC(=O)O)NC(=O)[C@H](Cc2ccc(OCC(=O)O)cc2)NC1=O [Compound 2867] ({CH2CO}-[Nva]Y(Carboxymethyl)D[Phe(3-Me)]Y(Carboxymethyl)[Bip]Y(Carboxymethyl)[Orn][dL][Dab][Cha][Val(3-OH)]SC[Dab][AEEA]-{NH(CH2)12COOH}; thioether N-14) |
| 35.7 | CC(C)C[C@@H]1NC(=O)[C@H](Cc2c[nH]c3ccccc23)NC(=O)[C@H](CC(=O)O)NC(=O)[C@H](Cc2ccc(C(=O)O)cc2)NC(=O)[C@H](Cc2ccc(OCC(=O)O)cc2)NC(=O)CSC[C@@H](C(=O)N[C@@H](CCCCN)C(=O)NCCCCCCCCCCC(=O)O)NC(=O)[C@H](CCCNC(N)=O)NC(=O)[C@H](C(C)C)NC(=O)[C@H](CC2CCCCC2)NC(=O)[C@H](CCN)NC(=O)[C@@H](CC(C)C)NC(=O)[C@H](CCCN)NC(=O)[C@H](Cc2ccc(O)cc2)NC(=O)[C@H](Cc2ccc(-c3ccccc3)cc2)NC1=O [Compound 1236] ({CH2CO}-Y(Carboxymethyl)[Phe(4-COOH)]DWL[Bip]Y[Orn][dL][Dab][Cha]V[Cit]CK[Aun]-OH; thioether N-14) |
| 30.6 | Cc1cccc(C[C@@H]2NC(=O)[C@H](CC(=O)O)NC(=O)[C@H](Cc3ccc(OCC(=O)O)cc3)NC(=O)[C@H](CN)NC(=O)CSC[C@@H](C(=O)N[C@H](C(=O)NCCCCCCCCCCC(=O)O)[C@H](C)N)NC(=O)[C@H](CO)NC(=O)[C@H](C(C)C)NC(=O)[C@H](CC3CCCCC3)NC(=O)[C@H](CCN)NC(=O)[C@@H](CC(C)C)NC(=O)[C@H](CCCN)NC(=O)[C@H](Cc3ccc(OCC(=O)O)cc3)NC(=O)[C@H](Cc3ccc(-c4ccccc4)cc3)NC(=O)[C@H](Cc3ccc(OCC(=O)O)cc3)NC2=O)c1 [Compound 2172] ({CH2CO}-[Dap]Y(Carboxymethyl)D[Phe(3-Me)]Y(Carboxymethyl)[Bip]Y(Carboxymethyl)[Orn][dL][Dab][Cha]VSC[Abu(3S-NH2)][Aun]-OH; thioether N-14) |
| 66.2 | CC(C)C[C@H]1NC(=O)[C@H](CCCN)NC(=O)[C@H](Cc2ccc(O)cc2)NC(=O)[C@H](Cc2ccc(-c3ccccc3)cc2)NC(=O)[C@H](C(C)C)NC(=O)[C@H](Cc2c[nH]c3ccccc23)NC(=O)[C@H](CC(=O)O)NC(=O)[C@H](Cc2ccc(OCC(=O)O)cc2)NC(=O)[C@H](CCCNC(=N)N)NC(=O)CSC[C@@H](C(=O)N[C@@H](CCN)C(=O)NCCCCCCCCCCC(=O)O)NC(=O)[C@H](Cc2ccc(O)cc2)NC(=O)[C@H](C(C)C)NC(=O)[C@H](CC2CCCCC2)NC(=O)[C@H](CCN)NC1=O [Compound 3343] ({CH2CO}-RY(Carboxymethyl)DWV[Bip]Y[Orn][dL][Dab][Cha]VYC[Dab][Aun]-OH; thioether N-14) |
| 23.2 | CC(C)C[C@H]1NC(=O)[C@H](CCCN)NC(=O)[C@H](C(C)C)NC(=O)[C@H](Cc2ccc(-c3ccccc3)cc2)NC(=O)[C@H](C(C)C)NC(=O)[C@H](Cc2c[nH]c3ccccc23)NC(=O)[C@H](CC(=O)O)NC(=O)[C@H](Cc2ccc(OCC(=O)O)cc2)NC(=O)[C@H](Cc2ccncc2)NC(=O)CSC[C@@H](C(=O)NCCOCCOCC(=O)NCCCCCCCCCCC(=O)O)NC(=O)[C@H](C(C)O)NC(=O)[C@H](C(C)C)NC(=O)[C@H](CC2CCCCC2)NC(=O)[C@H](CCN)NC1=O (stereo partly drawn) [Compound 3048] ({CH2CO}-[4Pal]Y(Carboxymethyl)DWV[Bip]V[Orn][dL][Dab][Cha]V[Thr(3ξ)]C[AEEA][Aun]-OH; thioether N-14) |
| 18.4 | Cc1cccc(C[C@@H]2NC(=O)[C@H](CC(=O)O)NC(=O)[C@H](Cc3ccc(OCC(=O)O)cc3)NC(=O)[C@H](C(C)O)NC(=O)CSC[C@@H](C(=O)N[C@@H](CCN)C(=O)NCCCCCCCCCCC(=O)O)NC(=O)[C@H](C(C)O)NC(=O)[C@H](C(C)C)NC(=O)[C@H](CC3CCCCC3)NC(=O)[C@H](CCN)NC(=O)[C@@H](CC(C)C)NC(=O)[C@H](CCCNC(N)=O)NC(=O)[C@H](Cc3ccc(OCC(=O)O)cc3)NC(=O)[C@H](Cc3ccc(-c4ccccc4)cc3)NC(=O)[C@H](C(C)C)NC2=O)c1 (stereo partly drawn) [Compound 3451] ({CH2CO}-[Thr(3ξ)]Y(Carboxymethyl)D[Phe(3-Me)]V[Bip]Y(Carboxymethyl)[Cit][dL][Dab][Cha]V[Thr(3ξ)]C[Dab][Aun]-OH; thioether N-14) |
